Reference: ChEMBL document CHEMBL4627373, “Antitubercular Ilamycins from Marine-Derived Streptomyces atratus SCSIO ZH16 ΔilaR” (J Nat Prod, 2020)
*1 amine or outer side, *2 acyl side, *3 side chain or, on linkers, in order; H or OH if unused. Where a SMILES comes first, the peptide text is derived from it. [ ]: non-standard residue; d: D form. Trp(1-(1,1-Me2-allyl)) = C=CC(C)(C)n1cc(C[C@H](N)C(=O)O)c2ccccc21; X6 = C=C[C@](C)(CO)n1cc(C[C@H](N[*:1])C(=O)[*:2])c2ccccc21; Tyr(3-NO2) = N[C@@H](Cc1ccc(O)c([N+](=O)[O-])c1)C(=O)O; X7 = CN([C@@H](C[C@@](C)(O)C(=O)O)C(=O)[*:2])[*:1]; X2 = CN([C@@H](C[C@H](CO)C(=O)O)C(=O)[*:2])[*:1]; X4 = C[C@H](C[C@@H](C(=O)[*:2])N(C)[*:1])C(=O)O; X1 = CN([C@@H](C[C@@](C)(O)CO)C(=O)[*:2])[*:1]; X5 = O=CNc1cc(C[C@H](N[*:1])C(=O)[*:2])ccc1O; X3 = CN([C@@H](CC(CO)CO)C(=O)[*:2])[*:1]; Gly(E-crotyl) = C/C=C/C[C@H](N)C(=O)O; NMeMet(O) = CN[C@@H](CCS(C)=O)C(=O)O; NMeL = CN[C@@H](CC(C)C)C(=O)O

How the values were obtained:
[1] = Cytotoxicity against human HUVEC12 cells assessed as reduction in cell viability after 24 hrs by CCK8 assay; assay type: cell-based
HeLa = assay: Cytotoxicity against human HeLa cells assessed as reduction in cell viability after 24 hrs by CCK8 assay; assay type: functional, cell-based
MCF7 = assay: Cytotoxicity against human MCF7 cells assessed as reduction in cell viability after 24 hrs by CCK8 assay; assay type: functional, cell-based; conditions: MCF7, 24 h
L02 = assay: Cytotoxicity against human LO2 cells assessed as reduction in cell viability after 24 hrs by CCK8 assay; assay type: cell-based; conditions: L02, 24 h
[2] = tested on: Mycobacterium tuberculosis; assay: Antitubercular activity against Mycobacterium tuberculosis H37Rv assessed as reduction in microbial growth by broth dilution method; assay type: functional
RKO = assay: Cytotoxicity against human RKO cells assessed as reduction in cell viability after 24 hrs by CCK8 assay; assay type: functional, cell-based
HepG2 = assay: Cytotoxicity against human HepG2 cells assessed as reduction in cell viability after 24 hrs by CCK8 assay; assay type: functional, cell-based; conditions: HepG2, 24 h
A549 = assay: Cytotoxicity against human A549 cells assessed as reduction in cell viability after 24 hrs by CCK8 assay; assay type: functional, cell-based; conditions: A549, 24 h

SMILES	IC50 [1] [µM]	IC50 (HeLa) [µM]	IC50 (MCF7) [µM]	IC50 (L02) [µM]	MIC [2] [µM]	IC50 (RKO) [µM]	IC50 (HepG2) [µM]	IC50 (A549) [µM]
C=CC(C)(C)n1cc(C[C@@H]2NC(=O)[C@H](C/C=C/C)NC(=O)[C@H](CC(C)C)N3C(=O)[C@H](C[C@H](C)[C@H]3O)N(C)C(=O)[C@H](C)NC(=O)[C@H](Cc3ccc(O)c([N+](=O)[O-])c3)NC(=O)[C@H](CC(C)C)N(C)C2=O)c2ccccc21	15	3.1	3.1	10	0.0098	7.5	3.7	4.3
C=C[C@](C)(CO)n1cc(C[C@@H]2NC(=O)[C@H](C/C=C/C)NC(=O)[C@H](CC(C)C)N3C(=O)[C@H](C[C@@](C)(O)[C@H]3O)N(C)C(=O)[C@H](C)NC(=O)[C@H](Cc3ccc(O)c([N+](=O)[O-])c3)NC(=O)[C@H](CC(C)C)N(C)C2=O)c2ccccc21	> 50	14	27	22	1.4	22	> 50	> 50
C=CC(C)(C)n1cc(C[C@@H]2NC(=O)[C@H](C/C=C/C)NC(=O)[C@H](CC(C)C)N3C(=O)[C@H](C[C@H](C)[C@H]3OC)N(C)C(=O)[C@H](C)NC(=O)[C@H](Cc3cccc([N+](=O)[O-])c3)NC(=O)[C@H](CC(C)C)N(C)C2=O)c2ccccc21					1.2			
C=C[C@](C)(CO)n1cc(C[C@@H]2NC(=O)[C@H](C/C=C/C)NC(=O)[C@H](CC(C)C)N3C(=O)[C@H](C[C@H](C)[C@H]3O)N(C)C(=O)[C@H](C)NC(=O)[C@H](Cc3ccc(O)c([N+](=O)[O-])c3)NC(=O)[C@H](CC(C)C)N(C)C2=O)c2ccccc21	47	28	33	31	0.0096	19	> 50	34
C=CC(C)(C)n1cc(C[C@@H]2NC(=O)[C@H](C/C=C/C)NC(=O)[C@H](CC(C)C)N3C(=O)[C@H](C[C@@H](CO)[C@H]3O)N(C)C(=O)[C@H](C)NC(=O)[C@H](Cc3ccc(O)c([N+](=O)[O-])c3)NC(=O)[C@H](CC(C)C)N(C)C2=O)c2ccccc21	12	7.2	5.6	16	1.4	7.3	22	19
C=CC(C)(C)n1cc(C[C@@H]2NC(=O)[C@H](C/C=C/C)NC(=O)[C@H](CC(C)C)NC(=O)[C@H](CC[S+](C)[O-])N(C)C(=O)[C@H](C)NC(=O)[C@H](Cc3ccc(O)c([N+](=O)[O-])c3)NC(=O)[C@H](CC(C)C)N(C)C2=O)c2ccccc21 (some centres not stated) (cyclo(A[NMeMet(O)]L[Gly(E-crotyl)][Trp(1-(1,1-Me2-allyl))][NMeL][Tyr(3-NO2)]))	28	14	22	> 50	1.4	37	29	25
C=CC(C)(C)n1cc(C[C@@H]2NC(=O)[C@H](C/C=C/C)NC(=O)[C@H](CC(C)C)NC(=O)[C@H](C[C@@](C)(O)CO)N(C)C(=O)[C@H](C)NC(=O)[C@H](Cc3ccc(O)c([N+](=O)[O-])c3)NC(=O)[C@H](CC(C)C)N(C)C2=O)c2ccccc21 (cyclo(A[X1]L[Gly(E-crotyl)][Trp(1-(1,1-Me2-allyl))][NMeL][Tyr(3-NO2)]))	> 50	49	> 50	> 50	2.3	> 50	> 50	> 50
C=CC(C)(C)n1cc(C[C@@H]2NC(=O)[C@H](C/C=C/C)NC(=O)[C@H](CC(C)C)NC(=O)[C@H](C[C@H](CO)C(=O)O)N(C)C(=O)[C@H](C)NC(=O)[C@H](Cc3ccc(O)c([N+](=O)[O-])c3)NC(=O)[C@H](CC(C)C)N(C)C2=O)c2ccccc21 (cyclo(A[X2]L[Gly(E-crotyl)][Trp(1-(1,1-Me2-allyl))][NMeL][Tyr(3-NO2)]))	> 50	> 50	> 50	> 50	9.5	> 50	> 50	> 50
C=CC(C)(C)n1cc(C[C@@H]2NC(=O)[C@H](C/C=C/C)NC(=O)[C@H](CC(C)C)NC(=O)[C@H](CC(CO)CO)N(C)C(=O)[C@H](C)NC(=O)[C@H](Cc3ccc(O)c([N+](=O)[O-])c3)NC(=O)[C@H](CC(C)C)N(C)C2=O)c2ccccc21 (cyclo(A[X3]L[Gly(E-crotyl)][Trp(1-(1,1-Me2-allyl))][NMeL][Tyr(3-NO2)]))	> 50	17	38	> 50	1.2	41	> 50	> 50
C=CC(C)(C)n1cc(C[C@@H]2NC(=O)[C@H](C/C=C/C)NC(=O)[C@H](CC(C)C)NC(=O)[C@H](C[C@@H](C)C(=O)O)N(C)C(=O)[C@H](C)NC(=O)[C@H](Cc3ccc(O)cc3)NC(=O)[C@H](CC(C)C)N(C)C2=O)c2ccccc21 (cyclo(A[X4]L[Gly(E-crotyl)][Trp(1-(1,1-Me2-allyl))][NMeL]Y))	> 50	> 50	> 50	> 50	10	> 50	> 50	> 50
C=CC(C)(C)n1cc(C[C@@H]2NC(=O)[C@H](C/C=C/C)NC(=O)[C@H](CC(C)C)NC(=O)[C@H](C[C@@H](C)C(=O)O)N(C)C(=O)[C@H](C)NC(=O)[C@H](Cc3ccc(O)c([N+](=O)[O-])c3)NC(=O)[C@H](CC(C)C)N(C)C2=O)c2ccccc21 (cyclo(A[X4]L[Gly(E-crotyl)][Trp(1-(1,1-Me2-allyl))][NMeL][Tyr(3-NO2)]))	> 50	> 50	> 50	> 50	1.2	> 50	> 50	> 50
C=CC(C)(C)n1cc(C[C@@H]2NC(=O)[C@H](C/C=C/C)NC(=O)[C@H](CC(C)C)NC(=O)[C@H](C[C@@H](C)C(=O)O)N(C)C(=O)[C@H](C)NC(=O)[C@H](Cc3ccc(O)c(NC=O)c3)NC(=O)[C@H](CC(C)C)N(C)C2=O)c2ccccc21 (cyclo(A[X4]L[Gly(E-crotyl)][Trp(1-(1,1-Me2-allyl))][NMeL][X5]))	> 50	> 50	> 50	> 50	9.6	> 50	> 50	> 50
C=C[C@](C)(CO)n1cc(C[C@@H]2NC(=O)[C@H](C/C=C/C)NC(=O)[C@H](CC(C)C)NC(=O)[C@H](C[C@@H](C)C(=O)O)N(C)C(=O)[C@H](C)NC(=O)[C@H](Cc3ccc(O)c([N+](=O)[O-])c3)NC(=O)[C@H](CC(C)C)N(C)C2=O)c2ccccc21 (cyclo(A[X4]L[Gly(E-crotyl)][X6][NMeL][Tyr(3-NO2)]))	48	45	> 50	49	9.5	> 50	> 50	30
C=C[C@](C)(CO)n1cc(C[C@@H]2NC(=O)[C@H](C/C=C/C)NC(=O)[C@H](CC(C)C)NC(=O)[C@H](C[C@@](C)(O)C(=O)O)N(C)C(=O)[C@H](C)NC(=O)[C@H](Cc3ccc(O)c([N+](=O)[O-])c3)NC(=O)[C@H](CC(C)C)N(C)C2=O)c2ccccc21 (cyclo(A[X7]L[Gly(E-crotyl)][X6][NMeL][Tyr(3-NO2)]))	> 50	> 50	> 50	> 50	0.24	> 50	> 50	> 50
COc1cccc2c1C(=O)c1c(O)c3c(c(O)c1C2=O)C[C@@](O)(C(=O)CO)C[C@@H]3O[C@H]1C[C@H](N)[C@H](O)[C@H](C)O1 [DOXORUBICIN]	4	0.5	0.4			0.3	0.8	0.7
CO[C@H]1/C=C/O[C@@]2(C)Oc3c(C)c(O)c4c(O)c(c(/C=N/N5CCN(C)CC5)c(O)c4c3C2=O)NC(=O)/C(C)=C\C=C\[C@H](C)[C@H](O)[C@@H](C)[C@@H](O)[C@@H](C)[C@H](OC(C)=O)[C@@H]1C [RIFAMPIN]					0.3			
